Earlier results in patent US8062870B2, “Enantiomerically resolving acyloxyalkyl thiocarbonates used in synthesizing acyloxyalkyl carbamate prodrugs” (XenoPort, Inc., priority 2008, dated 2011).

Conditions: dosed either orally or directly into the colon of a mammal

SMILES	bioavailability as pregabalin
CC(C)C[C@H](CNC(=O)OC(C)OC(=O)c1ccccc1)CC(=O)O (some centres unmarked)	high bioavailability
CC(C)C[C@H](CNC(=O)OC(OC(=O)C(C)C)C(C)C)CC(=O)O (some centres unmarked)	high bioavailability
